US20250042889A1, “3CLPRO PROTEASE INHIBITOR” (SHANGHAI QILU PHARMACEUTICAL RESEARCH AND DEVELOPMENT …, priority 2021, published 2025)

Target: SARS-COV-2 3CLpro/Mpro protease (Severe acute respiratory syndrome coronavirus 2 (2019-nCoV) (SARS-CoV-2), UniProt P0DTD1)
Assay: Inhibitory effect on SARS-COV-2 3CLpro/Mpro protease by fluorescence resonance energy transfer
Format: biochemical
Settings: activity intervals A-D, read-out: IC50 (nM), Inhibition on SARS-CoV-2 3CLpro/Mpro protease

Structure (SMILES)	IC50
CNc1cncc(C(=O)N2C[C@H](Nc3c(C(=O)N4C[C@@H](C)O[C@@H](C)C4)cc(Br)cc3[N+](=O)[O-])C[C@H]2C(=O)NCc2ccnc(C(F)(F)F)n2)c1 [Example 450, (2S,4R)-4-((4-bromo-2-((2R,6S)-2,6-dimethylmorpholin-4-carbonyl)-6-nitrophenyl)amino)-1-(5-(methylamino)nicotinoyl)-N-((2-(trifluoromethyl)pyrimidin-4-yl)methyl) pyrrolidine-2-formamide]	10 to 50 nM
[2H]C([2H])([2H])Nc1cncc(C(=O)N2C[C@H](Nc3c(C(=O)N4C[C@@H](C)O[C@@H](C)C4)cc(Br)cc3[N+](=O)[O-])[C@@H](OC([2H])([2H])[2H])C2)c1 [Example 451]	10 to 50 nM
CNc1cncc(C(=O)N2C[C@H](Nc3c(C(=O)N4C[C@@H](C)O[C@@H](C)C4)cc(Br)cc3[N+](=O)[O-])C[C@@H](O[C@H]3CCOC3)C2)c1 [Example 452, (5-Bromo-2-(((3R,5R)-1-(5-(methylamino)nicotinoyl)-5-((S)-tetrahydrofuran-3-yl)oxy)piperidin-3-amino)-3-nitrophenyl)((2S,6R)-2,6-dimethylmorpholinyl)methanone]	50 to 100 nM
CO[C@H]1CN(C(=O)c2cncc3[nH]nnc23)C[C@@H]1Nc1c(C(=O)N2C[C@@H](C)O[C@@H](C)C2)cc(Br)cc1[N+](=O)[O-] [Example 454, (5-Bromo-2-(((3S,4S)-4-methoxy-1-(2-methyl-3H-1,2,3-triazole[4,5-c]pyridin-7-carbonyl)pyrrolidin-3-yl)amino)-3-nitrophenyl)((2S,6R)-2,6-dimethylmorpholinyl)methanone]	10 to 50 nM
CNc1cncc(C(=O)N2C[C@H](Nc3c(C(=O)N4C[C@@H](C)O[C@@H](C)C4)cc(Br)cc3[N+](=O)[O-])[C@@H](OCc3ccccc3)C2)c1 [Example 455]	10 to 50 nM
CNc1cncc(C(=O)N2C[C@H](Nc3c(C(=O)N4C[C@@H](C)O[C@@H](C)C4)cc(Br)cc3[N+](=O)[O-])[C@@H](OCc3ccc(OC)nc3)C2)c1 [Example 456, (5-Bromo-2-(((3S,4S)-4-((6-methoxypyridin-3-yl)methoxy)-1-(5-methylamino)nicotinoyl)pyrrolidin-3-amino)-3-nitrophenyl)((2S,6R)-2,6-dimethylmorpholinyl)methanone]	10 to 50 nM
CNc1cncc(C(=O)N2C[C@H](Nc3c(C(=O)N4C[C@@H](C)O[C@@H](C)C4)cc(Br)cc3[N+](=O)[O-])[C@@H](OCc3ccc(C(F)(F)F)nc3)C2)c1 [Example 457, (5-Bromo-2-((3S,4S)-1-(5-(methylamino)nicotinoyl)-4-((6-(trifluoromethyl)pyridin-3-yl)methoxy)pyrrolidin-3-amino)-3-nitrophenyl)((2S,6R)-2,6-dimethylmorpholinyl)methanone]	100 to 200 nM
CNc1cncc(C(=O)N2C[C@H](Nc3c(C(=O)N4C[C@@H](C)O[C@@H](C)C4)cc(Br)cc3[N+](=O)[O-])[C@@H](OCc3ccccn3)C2)c1 [Example 458]	10 to 50 nM
CNc1cncc(C(=O)N2C[C@H](Nc3c(C(=O)N4C[C@@H](C)O[C@@H](C)C4)cc(Br)cc3[N+](=O)[O-])[C@@H](OCc3ccc(F)cn3)C2)c1 [Example 459]	10 to 50 nM
CNc1cncc(C(=O)N2C[C@H](Nc3c(C(=O)N4C[C@@H](C)O[C@@H](C)C4)cc(Br)cc3[N+](=O)[O-])[C@@H](OCc3ncco3)C2)c1 [Example 460]	10 to 50 nM
CNc1cncc(C(=O)N2C[C@H](Nc3c(C(=O)N4C[C@@H](C)O[C@@H](C)C4)cc(Br)cc3[N+](=O)[O-])[C@@H](OCc3nccs3)C2)c1 [Example 461]	10 to 50 nM
CNc1cncc(C(=O)N2C[C@H](Nc3c(C(=O)N4C[C@@H](C)O[C@@H](C)C4)cc(Br)cc3[N+](=O)[O-])[C@@H](OCc3cncn3C)C2)c1 [Example 462, (5-Bromo-2-(((3S,4S)-4-((1-methyl-1H-imidazol-5-yl)methoxy)-1-(5-(methylamino)nicotinoyl)pyrrolidin-3-yl)amino)-3-nitrophenyl)((2S,6R)-2,6-dimethylmorpholinyl)methanone]	10 to 50 nM
